Legend:
[1] = tested on: High Fat+Streptozotocin Induced Mouse Model; assay: High fat+streptozotocin induced mouse steatohepatitis model; assay type: in vivo, mice; details: for Inhibition Rate (%) on Ballooning Degeneration of Liver Cells: H&E staining score of liver vs model group; for Inhibition Rate (%) on Ballooning Degeneration of Liver Cells / Inhibition Rate (%) on Collagen Accumulation in Liver Tissue / Body Weight / Liver Weight / Liver Weight/Body Weight / Inhibition Rate (%) on Fatty Degeneration: oral once a day for 21 days, compound C 100 mg/kg, telmisartan 50 mg/kg; for Inhibition Rate (%) on Collagen Accumulation in Liver Tissue: Picrosirius red staining score of liver vs model group; for Body Weight / Liver Weight / Liver Weight/Body Weight: at the end of the test; for Body Weight: after fasting; for Inhibition Rate (%) on Fatty Degeneration: oil red O staining score of liver vs model group
Protocol: Pregnant mice were purchased from Shanghai Lingchang Laboratory Animal Co., Ltd. Thirty 2-day-old newborn male mice were chosen for the test. Each mouse was injected with 200 μg of streptozotocin (STZ, purchased from Sigma) and fed a high-fat diet for 2 weeks from 4-week-old to induce a steatohepatitis model. Meanwhile, another ten mice were selected as a normal group where they were fed a normal diet without injection of STZ. After 2 weeks of high-fat diet feeding, the mice were divided into 3 groups according to their body weights and fasting blood glucose levels: a model group, a compound C administration group, and a telmisartan (purchased from TOKYO CHEMICAL) administration group. Each group underwent once-a-day oral administration of the corresponding substance for 21 consecutive days. The body weights of mice were recorded each day (see FIG. 1A and FIG. 1B), and after the final administration, the body weights of mice after fasting were recorded (see Table 2 and FIG. 2A and FIG. 2B). The animals were euthanized, and their liver tissues were harvested. The liver tissues were weighed and subjected to histologic scoring (blind assessment) in respect of ballooning degeneration, fatty degeneration, and collagen accumulation, etc. Histologic changes were assessed by hematoxylin and eosin (H&E) staining, oil red O staining and Picrosirius red staining of the liver tissues, where the H&E staining was used for assessing the ballooning degeneration of liver cells, the oil red O staining was used for reflecting the fatty degeneration of liver and the Picrosirius red staining was used for assessing collagen accumulation. Relevant scores are shown in FIG. 3A, FIG. 3B and FIG. 3C, and inhibition rates of various histologic changes are shown in Table 3.
Scoring criteria: fatty degeneration is scored on a scale from 0 to 3, where lesion area <5% is scored as 0, lesion area of 5-33% is scored as 1, lesion area of 33-66% is scored as 2 and lesion area >66% is scored as 3. Ballooning degeneration of liver cells is scored on a scale from 0 to 2, where no ballooning degeneration is scored as 0, little ballooning degeneration is a scored as 1, and ballooning degeneration of most cells or significant ballooning degeneration is scored as 2. Collagen accumulation is scored on a scale from 0 to 4 with reference to the scoring criteria reported in Brunt E M, et al., Hepatology (2011).
The inhibition rates (%) on fatty degeneration, ballooning degeneration of liver cells and collagen accumulation in liver tissue shown in Table 3 were calculated according to the following formulae, respectively (the normal group was scored as 0): Inhibition rate (%) on fatty degeneration=100%×(the average score of the model group−the average score of the administration group)/(the average score of the model group−the average score of the normal group) Inhibition rate (%) on ballooning degeneration of liver cells=100%×(the average score of the model group−the average score of the administration group)/(the average score of the model group−the average score of the normal group) Inhibition rate (%) on collagen accumulation in liver tissue=100%×(the average score of the model group−the average score of the administration group)/(the average score of the model group−the average score of the normal group)

[2] = tested on: High Fat+High Cholesterol+High Sugar+Carbon Tetrachloride Induced Mouse Model; assay: High fat+high cholesterol+high sugar+carbon tetrachloride induced mouse steatohepatitis model; assay type: in vivo, mice; details: three 21-day courses; for Collagen accumulation in liver tissue: Picrosirius red staining; for Collagen accumulation in liver tissue / Serum cholesterol level / Serum low density lipoprotein level: oral once a day, compound C 100 mg/kg, telmisartan 10 mg/kg; for Serum cholesterol level / Serum low density lipoprotein level: vs model group (compound C p<0.05)
Protocol: Mice which were 8-10 weeks old (purchased from Jiangsu GemPharmatech Co., Ltd.) were fed a western diet (a high fat+high cholesterol feed, purchased from Beijing Hfk Bioscience Co., Ltd.) and a high-sugar solution (23.1 g/L D-fructose and 18.9 g/L D-glucose) and injected intraperitoneally with carbon tetrachloride to induce a steatohepatitis model. Starting from day 7 (D7) of western diet+high-sugar solution feeding, the mice were injected intraperitoneally with 0.05 ml of 20% carbon tetrachloride once a week, for 12 weeks. Animals were divided into groups (8 animals in each group) on day 28: a model group (administrated with a vehicle composed of PEG400, Tween-80 and deionized water), a compound C (100 mg/kg) administration group, and a telmisartan (10 mg/kg) administration group. Starting from day 28, the vehicle, compound C and telmisartan were each administered orally once a day, for three 21-day treatment courses at one-week intervals. Meanwhile, a normal control group was set wherein the mice were fed a normal diet combined with normal drinking water. Peripheral blood was taken from animals 2 h after the final administration, and serum was isolated. The animals were euthanized, and their liver tissues were harvested. The serum was mainly used to measure the levels of cholesterol and low density lipoprotein. The liver tissues were stained with Picrosirius red to assess collagen accumulation, and the ratio of endothelial cells to macrophages was measured by flow cytometry to reflect liver damage.

[3] = tested on: High Fat+High Cholesterol+Carbon Tetrachloride Induced Mouse Model; assay: High fat+high cholesterol+carbon tetrachloride induced mouse steatohepatitis model; assay type: in vivo, mice; details: oral once a day, three 21-day courses, compound C 100 mg/kg, telmisartan 10 mg/kg; for Collagen accumulation in liver tissue: Picrosirius red staining, vs model group (compound C p<0.01; telmisartan p>0.05); for Serum cholesterol level / Serum low density lipoprotein level: vs model group (compound C p<0.01)
From the text: Mice which were 8-10 weeks old (purchased from Jiangsu GemPharmatech Co., Ltd.) were fed a western diet (a high fat+high cholesterol feed, purchased from Beijing Hfk Bioscience Co., Ltd.) and injected intraperitoneally with carbon tetrachloride to induce a steatohepatitis model. Experimental animals were randomly divided into 3 groups (8 animals in each group) according to their body weights: a model group (administrated with a vehicle composed of PEG400, Tween-80 and deionized water), a compound C (100 mg/kg) administration group, and a telmisartan (10 mg/kg) administration group. Starting from day 5 (D5) of western diet feeding, each group underwent an intraperitoneal injection of 0.05 ml of 20% CCl4 once a week, for 12 weeks. Starting from day 21, the vehicle, compound C and telmisartan were each administered orally once a day, for three 21-day treatment courses at one-week intervals. Meanwhile, a normal control group was set wherein the mice were fed a normal diet combined with normal drinking water. Peripheral blood was taken from animals 2 h after the final administration, and serum was isolated. The animals were euthanized and their liver tissues were harvested. The serum was mainly used to measure the levels of cholesterol and low density lipoprotein. The liver tissues were stained with Picrosirius red to assess collagen accumulation.

[4] = tested on: Carbon Tetrachloride Induced Mouse Model; assay: Carbon tetrachloride induced mouse model; assay type: in vivo, mice; details: Picrosirius red staining
Protocol: Mice which were 8-10 weeks old (purchased from Jiangsu GemPharmatech Co., Ltd.) were randomly divided into 4 groups (8 animals in each group) according to their body weights: a model group (administrated with a vehicle, 0.5% CMC-Na), a compound C (300 mg/kg) administration group, a compound C (100 mg/kg) administration group, and a telmisartan (10 mg/kg) administration group. Each mouse was injected intraperitoneally with 0.05 ml of 40% CCl4 twice a week, for 6 consecutive weeks. Starting from day 15, each group underwent an intragastric administration of the corresponding substance once a day, for 28 consecutive days. Meanwhile, a normal control group was set wherein the mice in this group were fed a normal diet combined with normal drinking water. Animals were euthanized 2 h after the final administration, and their liver tissues were harvested and stained with Picrosirius red to assess collagen accumulation.

[5] = tested on: High Fat+High Cholesterol Diet and N-Diethylnitrosamine Induced Rat Model; assay: High fat+high cholesterol diet and N-diethylnitrosamine induced rat model, NAS scoring; assay type: in vivo, SD rats; details: compound C administration groups (50 mg/kg and 100 mg/kg), intragastric once a day for 49 days; H&E staining; model group score 6
Protocol: Pregnant SD rats were purchased from Shanghai Jihui Laboratory Animal Care Co., Ltd, and neonatal rats obtained therefrom were used in this study. Forty male neonatal rats were chosen to receive a single injection of N-diethylnitrosamine (DEN, purchased from Sigma) at 2 weeks of age. After the neonatal rats were fed rat milk for 2 weeks, they were randomly divided into 4 groups (10 animals in each group) according to their body weights: a model group (0.5% CMC-Na), a compound C (50 mg/kg) administration group, a compound C (100 mg/kg) administration group, and an obeticholic acid (OCA, purchased from WuXi AppTec (Wuhan), 30 mg/kg) administration group. Each neonatal rat was fed a western diet (a high fat+high cholesterol feed, purchased from Trophic Animal Feed High-Tech Co., Ltd, China, Su Si certificate (2014) No. 06092) for 8 weeks. Meanwhile, another 8 male neonatal rats were selected as a normal group, which were fed rat milk for 4 weeks and then fed a normal diet instead of the high fat+high cholesterol diet. Starting from day 8 of high fat+high cholesterol diet feeding, the vehicle (0.5% CMC-Na), compound C and OCA were each administrated intragastrically once a day, for 49 consecutive days.
Animals were euthanized 2 h after the final administration, and their liver tissues were harvested. […]

Cn1c(C(=O)N2CC(F)(F)C2)cc2ccc(-c3nccc(Nc4ccc(-c5cn[nH]c5)cc4)n3)cc21 [Compound C]
Therapeutic effect (fatty degeneration, ballooning degeneration, collagen accumulation of liver tissue) ([1]; 100 mg/kg oral once a day for 21 days): significant therapeutic effects
Inhibition Rate (%) on Ballooning Degeneration of Liver Cells [1]: 60.00%
Inhibition Rate (%) on Collagen Accumulation in Liver Tissue [1]: 44.44%
Body Weight [1]: 17.1 ± 0.59 g
Liver Weight [1]: 872.3 ± 17.91 mg
Liver Weight/Body Weight [1]: 5.1 ± 0.15%
Inhibition Rate (%) on Fatty Degeneration [1]: 66.67%
Collagen accumulation in liver tissue ([2]; vs model group (p<0.01)): significantly reduced
Proportion of endothelial cells in liver tissue ([2]; flow cytometry, vs model group (p<0.01), compound C 100 mg/kg oral once a day): increased
Proportion of macrophages in liver tissue ([2]; flow cytometry, vs model group, compound C 100 mg/kg oral once a day): reduced at a certain extent
Serum cholesterol level [2]: significantly reduced
Serum low density lipoprotein level [2]: significantly reduced
Collagen accumulation in liver tissue [3]: significantly reduced
Serum cholesterol level [3]: significantly reduced
Serum low density lipoprotein level [3]: significantly reduced
Collagen accumulation in liver tissue ([4]; 100 mg/kg intragastric once a day for 28 days, vs model group (p<0.001)): significantly reduced
Collagen accumulation in liver tissue ([4]; 300 mg/kg intragastric once a day for 28 days, vs model group (p<0.001)): significantly reduced
NAS score of liver tissue [5]: about 4.2

CCCc1nc2c(C)cc(-c3nc4ccccc4n3C)cc2n1Cc1ccc(-c2ccccc2C(=O)O)cc1 [Telmisartan, telmisartan, reference compound]
Inhibition Rate (%) on Ballooning Degeneration of Liver Cells [1]: 11.12%
Inhibition Rate (%) on Collagen Accumulation in Liver Tissue [1]: 38.27%
Body Weight [1]: 15.7 ± 0.84 g
Liver Weight [1]: 760.1 ± 48.78 mg
Liver Weight/Body Weight [1]: 4.9 ± 0.39%
Inhibition Rate (%) on Fatty Degeneration [1]: −11.17%
Collagen accumulation in liver tissue ([2]; vs model group (p<0.01)): significantly reduced
Serum cholesterol level [2]: no effect
Serum low density lipoprotein level [2]: no effect
Collagen accumulation in liver tissue [3]: not inhibited
Serum cholesterol level [3]: no effect
Serum low density lipoprotein level [3]: no effect
Collagen accumulation in liver tissue ([4]; 10 mg/kg intragastric once a day for 28 days, vs model group (p>0.05)): not inhibited

— patent publication US12485108B2, “Method for treating fatty liver disease and/or steatohepatitis” (BEIJING TIDE PHARMACEUTICAL CO., LTD., priority 2019, dated 2025)
